Results on 2 molecules are retold here after US20130225684A1, “METHODS AND COMPOSITIONS FOR ENHANCEMENT OF VISION PERFORMANCE” (KYOWA HAKKO BIO CO., LTD., priority 2012, published 2013).

Series [1] in a line: hand-eye reaction time on the Dynavison D2 after a 40 minute basketball game. The series is classed as in vivo, women (basketball players). The settings on record: for Visual reaction time: FIG. 2. As for the experimental part:
The purpose of this study was to examine the efficacy of L-alanyl-Lglutamine (AG) ingestion on sports vision, including reaction time. Ten women (21.2±1.6 years; height: 177.8±8.7 cm; body mass:73.5±8.0 kg), all basketball players, volunteered for this study. The study required subjects to first participate in a 40 minute basketball game. During one trial, subjects consumed only water (W), while during the other two trials subjects consumed the AG supplement marketed as Sustamine mixed in water using either a low dose (1 g per 500 ml) (AG1) or high dose (2 g per 500 ml) (AG2) concentration. Other subjects where not allowed to consume water or AG. (DHY) Measurement of hand-eye reaction time was performed on the Dynavison D2 (Dynavision, Ontario Canada). Subjects were required to assume a comfortable athletic stance and stand at a distance from the board where they could easily reach all of the lights. The board height was adjusted so the LCD screen was located just below eye level. Participants were told to fixate their gaze on the LCD screen in the middle of the board and to keep their focus there for the entirety of the experiment. During the assessment each subject pressed a light with their dominant side index finger on the board. When a second light flashed (on the same line of the initial light, but on the non-dominant side of their body), the subject removed their finger and pressed the new visual stimulus. The time necessary to recognize the new stimulus (new light lit until finger lifted from initial light) was recorded as visual reaction time, and the time it took for the subject to move and press the newly lit light was recorded as the motor reaction time. The total time for both visual reaction and motor reaction was calculated as the physical reaction time. A total of eight attempts were performed. The average time for all eight attempts was recorded.

The conditions of series [2]: alanylglutamine compared to glutamine; cited from earlier work.
For series [3] the following is noted: alanylglutamine compared to glutamine; cited from earlier work. The source holds these as a separate data set.
The conditions of series [4]: into alanine and glutamine; cited from earlier work.

Molecules are shown by their SMILES. Entries after “also recorded” stand apart in the source; their conditions may differ. Where a SMILES comes first, the peptide text is derived from it.

`C[C@H](N)C(=O)N[C@@H](CCC(N)=O)C(=O)O` [AG, L-alanyl-Lglutamine] (H-Ala-Gln-OH): the Visual reaction time entry in series [1] (AG1: low dose (1 g per 500 ml) in water, compared to DHY (no water and no AG), p=0.014) is on record as “significantly better; also recorded: enhanced visual reaction time”; in series [1] (AG2: high dose (2 g per 500 ml) in water, compared to DHY, p=0.018), “trend toward a similar response”. The “change in the physical reaction time (combined visual and motor differences)” value in series [1] (AG1: low dose (1 g per 500 ml) in water, compared to DHY, p=0.032) was “significantly greater”. In series [1] (between trials (AG1, AG2, W, DHY), FIG. 3), the “motor response (motor reaction time)” value is recorded as “no significant differences”. Also, in series [2], the “solubility in aqueous solutions” value is “superior”. The heat stability entry in series [3] is “superior”. For the same molecule, in series [4], the “degradation in the body” value is recorded as “immediately degraded”.

As to `NC(=O)CC[C@H](N)C(=O)O` [glutamine, reference compound], the “solubility in aqueous solutions” value in series [2] was “low-solubility”.
